Measurements as given in PubChem BioAssay AID248 (DTP/NCI, 2004).
Several values for one entry are separate records, joined by “and”; a condition that tells them apart may be missing. Identical values can stand only once. Inconclusive results and toxic doses are left out. No stated cut-off is given here; in the data, active means T/C of 150% or more; inactive means T/C below 125%.

System: L1210 leukemia ip in BDF1 mice, survival T/C
Experiment: NCI In Vivo Anticancer Drug Screen. Data for tumor model L1210 Leukemia (intraperitoneal) in B6D2F1 (BDF1) mice
Conditions: endpoint: mean survival time, higher = longer survival
Outline: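 Tumor cells were implanted, animals were treated, and survival was followed. The result divides the treated measurement by the vehicle-control measurement.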

[1] = dose: 100.0 mg/kg/injection, schedule: Q04DX003 (ip), vehicle: saline with Tween-80
[2] = dose: 100.0 mg/kg/injection, schedule: Q04DX003 (ip), vehicle: saline
[3] = dose: 200.0 mg/kg/injection, schedule: Q04DX003 (ip), vehicle: saline with Tween-80
[4] = dose: 200.0 mg/kg/injection, schedule: Q04DX003 (ip), vehicle: saline
[5] = dose: 400.0 mg/kg/injection, schedule: Q04DX003 (ip), vehicle: saline with Tween-80
[6] = dose: 400.0 mg/kg/injection, schedule: Q04DX003 (ip), vehicle: saline
[7] = dose: 50.0 mg/kg/injection, schedule: Q01DX001 (ip), vehicle: saline
[8] = dose: 100.0 mg/kg/injection, schedule: Q04DX003 (ip), vehicle: Klucel (hydroxypropylcellulose) (HPC)
[9] = dose: 100.0 mg/kg/injection, schedule: Q01DX009 (ip), vehicle: Klucel (hydroxypropylcellulose) (HPC)
[10] = dose: 100.0 mg/kg/injection, schedule: Q04DX002 (ip), vehicle: saline
[11] = dose: 200.0 mg/kg/injection, schedule: Q04DX002 (ip), vehicle: saline
[12] = dose: 400.0 mg/kg/injection, schedule: Q04DX002 (ip), vehicle: saline
[13] = dose: 100.0 mg/kg/injection, schedule: Q01DX009 (ip), vehicle: gum acacia

Measured: T/C

CC(=O)OCC1OC(n2cnc3c(Cl)nc(N)nc32)C(OC(C)=O)C1OC(C)=O (stereo not given)
inactive: dose: 100.0 mg/kg/injection, schedule: Q01DX005 (ip), vehicle: saline 103 % of control | dose: 200.0 mg/kg/injection, schedule: Q01DX005 (ip), vehicle: saline 101 % of control

CCN(CC)C(=O)Cn1cc(F)c(=O)[nH]c1=O
inactive: [1] 98 % of control | [2] 104 % of control | [3] 101 % of control | [4] 104 % of control | [5] 106 % of control | [6] 98 % of control

COC(=O)C1=C(NC(=O)Nc2ccc(Cl)cc2)OC(C)(C)C1c1ccc(Cl)cc1 (stereo not given)
inactive: dose: 12.5 mg/kg/injection, schedule: Q01DX001 (ip), vehicle: saline 92 % of control | dose: 12.5 mg/kg/injection, schedule: Q01DX009 (ip), vehicle: saline 86 % of control | dose: 12.5 mg/kg/injection, schedule: Q04DX003 (ip), vehicle: acetone 93 % of control | dose: 25.0 mg/kg/injection, schedule: Q01DX001 (ip), vehicle: saline 87 % of control | dose: 25.0 mg/kg/injection, schedule: Q01DX009 (ip), vehicle: saline 90 % of control | dose: 25.0 mg/kg/injection, schedule: Q04DX003 (ip), vehicle: acetone 100 % of control | [7] 86 % of control | dose: 50.0 mg/kg/injection, schedule: Q04DX003 (ip), vehicle: acetone 96 % of control

COc1cc(C(=O)OCCN(C(C)C)C(C)C)cc(OC)c1OC
inactive: [2] 101 % of control | [4] 95 % of control

O=C1OCCC1n1cc(F)c(=O)[nH]c1=O (stereo not given)
inactive: [8] 102 % of control | dose: 200.0 mg/kg/injection, schedule: Q04DX003 (ip), vehicle: Klucel (hydroxypropylcellulose) (HPC) 98 % of control | dose: 400.0 mg/kg/injection, schedule: Q04DX003 (ip), vehicle: Klucel (hydroxypropylcellulose) (HPC) 96 % of control

ClC1CCCCCCCCC1
inactive: [7] 122 % of control | dose: 100.0 mg/kg/injection, schedule: Q01DX001 (ip), vehicle: saline 95 % of control | dose: 400.0 mg/kg/injection, schedule: Q01DX001 (ip), vehicle: saline 92 % of control

COc1cc(Cn2cccc2/C=N/NC(N)=S)cc(OC)c1
inactive: dose: 25.0 mg/kg/injection, schedule: Q04DX002 (ip), vehicle: Klucel (hydroxypropylcellulose) (HPC) 105 % of control | dose: 50.0 mg/kg/injection, schedule: Q04DX002 (ip), vehicle: Klucel (hydroxypropylcellulose) (HPC) 111 % of control | dose: 100.0 mg/kg/injection, schedule: Q04DX002 (ip), vehicle: Klucel (hydroxypropylcellulose) (HPC) 111 % of control

Cc1cccnc1NS(=O)(=O)c1ccccc1
inactive: dose: 100.0 mg/kg/injection, schedule: Q01DX009 (ip), vehicle: saline with Tween-80 101 % of control | [1] 94 % of control | dose: 200.0 mg/kg/injection, schedule: Q01DX009 (ip), vehicle: saline with Tween-80 98 % of control | [3] 94 % of control | dose: 400.0 mg/kg/injection, schedule: Q01DX009 (ip), vehicle: saline with Tween-80 102 % of control | [5] 94 % of control

CCCCCC(C)O[Si](C)Oc1ccccc1 (stereo not given)
inactive: [1] 100 % of control | [3] 100 % of control | [5] 91 % of control

CCNC(C)(C)C(SSSC(c1ccc(Cl)cc1)C(C)(C)NCC)c1ccc(Cl)cc1 (stereo not given)
inactive: dose: 50.0 mg/kg/injection, schedule: Q01DX009 (ip), vehicle: Klucel (hydroxypropylcellulose) (HPC) 94 % of control | [9] 91 % of control | dose: 100.0 mg/kg/injection, schedule: Q01DX009 (ip), vehicle: other 89 % of control

C=C(C)CC(O)CCCCC (stereo not given)
inactive: [10] 98 % of control | [11] 102 % of control | [12] 98 % of control

COc1ccccc1CCO
inactive: dose: 50.0 mg/kg/injection, schedule: Q01DX001 (ip), vehicle: carboxymethylcellulose (CMC) 86 % of control | dose: 100.0 mg/kg/injection, schedule: Q01DX001 (ip), vehicle: carboxymethylcellulose (CMC) 98 % of control | dose: 200.0 mg/kg/injection, schedule: Q01DX001 (ip), vehicle: carboxymethylcellulose (CMC) 98 % of control | dose: 400.0 mg/kg/injection, schedule: Q01DX001 (ip), vehicle: carboxymethylcellulose (CMC) 98 % of control

N=C1c2ccccc2-c2nc3ccccc3c(=Nc3ccccc3C(=O)O)n21
inactive: [10] 89 % of control | [11] 86 % of control | [12] 89 % of control

O=S1(=O)C=C(c2ccccc2)C(c2ccccc2)=C1
inactive: dose: 3.12 mg/kg/injection, schedule: Q01DX009 (ip), vehicle: saline with Tween-80 98 % of control | dose: 6.25 mg/kg/injection, schedule: Q01DX009 (ip), vehicle: saline with Tween-80 106 % of control | dose: 12.5 mg/kg/injection, schedule: Q01DX009 (ip), vehicle: saline with Tween-80 101 % of control | dose: 25.0 mg/kg/injection, schedule: Q01DX009 (ip), vehicle: saline with Tween-80 101 % of control and 108 % of control | dose: 25.0 mg/kg/injection, schedule: Q04DX003 (ip), vehicle: Klucel (hydroxypropylcellulose) (HPC) 95 % of control | dose: 50.0 mg/kg/injection, schedule: Q01DX009 (ip), vehicle: saline with Tween-80 95 % of control | dose: 50.0 mg/kg/injection, schedule: Q04DX003 (ip), vehicle: Klucel (hydroxypropylcellulose) (HPC) 102 % of control | [8] 118 % of control and 91 % of control

CCCCCC[P+](=O)CCCCCC
inactive: dose: 100.0 mg/kg/injection, schedule: Q04DX002 (ip), vehicle: gum acacia 97 % of control | dose: 200.0 mg/kg/injection, schedule: Q04DX002 (ip), vehicle: gum acacia 103 % of control

CCOC(=O)CC/C(C)=N\N(C)C
inactive: [2] 93 % of control | [4] 97 % of control | [6] 93 % of control

Cc1cc(OC(=O)Nc2cccc(C(F)(F)F)c2)c(C(C)C)cc1Cl
inactive: [13] 87 % of control | dose: 200.0 mg/kg/injection, schedule: Q01DX009 (ip), vehicle: gum acacia 91 % of control | dose: 400.0 mg/kg/injection, schedule: Q01DX009 (ip), vehicle: gum acacia 86 % of control

O=[N+]([O-])c1ccccc1S(=O)(=O)Nc1ccccc1F
inactive: [9] 105 % of control | dose: 200.0 mg/kg/injection, schedule: Q01DX009 (ip), vehicle: Klucel (hydroxypropylcellulose) (HPC) 100 % of control | dose: 400.0 mg/kg/injection, schedule: Q01DX009 (ip), vehicle: Klucel (hydroxypropylcellulose) (HPC) 101 % of control

COc1ccccc1CNc1ncnc2nc[nH]c12
inactive: dose: 100.0 mg/kg/injection, schedule: Q04DX003 (ip), vehicle: acetone 97 % of control | dose: 200.0 mg/kg/injection, schedule: Q04DX003 (ip), vehicle: acetone 94 % of control | dose: 400.0 mg/kg/injection, schedule: Q04DX003 (ip), vehicle: acetone 107 % of control

O=C(NCCc1nc(C(=O)O)cs1)c1ccccc1
inactive: dose: 100.0 mg/kg/injection, schedule: Q01DX001 (ip), vehicle: other 98 % of control | [13] 99 % of control | dose: 100.0 mg/kg/injection, schedule: Q04DX003 (ip), vehicle: gum acacia 103 % of control | dose: 200.0 mg/kg/injection, schedule: Q01DX001 (ip), vehicle: other 101 % of control | dose: 200.0 mg/kg/injection, schedule: Q04DX003 (ip), vehicle: gum acacia 98 % of control | dose: 400.0 mg/kg/injection, schedule: Q01DX001 (ip), vehicle: other 102 % of control | dose: 400.0 mg/kg/injection, schedule: Q04DX003 (ip), vehicle: gum acacia 97 % of control

O=S1(=O)C=CC(Br)C1 (stereo not given)
inactive: dose: 100.0 mg/kg/injection, schedule: Q01DX001 (ip), vehicle: saline with Tween-80 100 % of control | dose: 200.0 mg/kg/injection, schedule: Q01DX001 (ip), vehicle: saline with Tween-80 101 % of control
